Values quoted from earlier work, collected in patent US9856304B2, “Peptide and application thereof” (Saitama Medical University, priority 2013, dated 2018).

Tested on: pancreatic β cells
Conditions: as described in Patent Document 1; cited from earlier work

For “Peptide A: 19 amino acid fragment of human TM4SF20, Position 98 to 116, from Patent Document 1 (ALYCMLISIQALLKGPLMC; listed as Homo sapiens)”, which “activity for promoting increase in pancreatic β cells” value (“activity for promoting increase” below) is on record?
Its value is “not as high as expected”.

With “C: 19 amino acid fragment of human TM4SF20, Position 161 to 179, from Patent Document 1 (TSNDTMASGWRASSFHFDS; listed as Homo sapiens)” as the substance, how does the “activity for promoting increase” value read?
The value was “not as high as expected”.

Which “activity for promoting increase” value does the source give for “B: 19 amino acid fragment of human TM4SF20, Position 78 to 96, from Patent Document 1 (CNNRTGMFLSSLFSVITVI; listed as Homo sapiens)” here?
The value was “not as high as expected”.
